This is an account of results in ChEMBL document CHEMBL1795223, “A reverse method for diversity introduction of benzimidazole to synthesize H(+)/K(+)-ATP enzyme inhibitors” (Bioorg Med Chem Lett, 2011).

The species entered for one assay is Sus scrofa. Briefly: Inhibition of H+/K+ATPase in pig gastric microsome assessed as liberation of inorganic phosphate using ATP at 10 uM relative to control. Type of assay: microsomes. The conditions noted are these: Stomach.
Regarding `COc1c(C)cnc(C[S+]([O-])c2nc3cc(Oc4ccccc4)c(NC(=O)c4ccco4)cc3[nH]2)c1C` (stereo unspecified), the inhibition turned out to be 48%.
Regarding `COc1ccnc(C[S+]([O-])c2nc3cc(N4CCCCC4)c(NC(C)=O)cc3[nH]2)c1OC` (stereo unspecified), the inhibition was 8%.
Same read-out and setting: with `CCCN(CCC)c1cc2nc([S+]([O-])Cc3ncc(C)c(OC)c3C)[nH]c2cc1NC(=O)C1CC1` (stereo unspecified) the figure was 33%; with `COc1cc2nc([S+]([O-])Cc3ncc(C)c(OC)c3C)[nH]c2cc1NC(=O)c1ccco1` (stereo unspecified), 13%.
Consider `COc1c(C)cnc(C[S+]([O-])c2nc3cc(N4CCCCC4)c(NC(=O)COCc4ccccc4)cc3[nH]2)c1C` (stereo unspecified), for which the inhibition was determined as 58%.
Still for that read-out and setting: under `CCCN(CCC)c1cc2nc([S+]([O-])Cc3ncc(C)c(OC)c3C)[nH]c2cc1NC(=O)C(F)(F)F` (stereo unspecified) stands 3%.
Still for that read-out and setting: under `COc1ccnc(C[S+]([O-])c2nc3cc(Oc4ccccc4)c(NC(C)=O)cc3[nH]2)c1OC` (stereo unspecified) stands 6%; under `CCOC(=O)N1CCN(c2cc3nc([S+]([O-])Cc4nccc(OC)c4OC)[nH]c3cc2NC(=O)C2CC2)CC1` (stereo unspecified), 4%; under `CCCN(CCC)c1cc2nc([S+]([O-])Cc3ncc(C)c(OC)c3C)[nH]c2cc1NC(=O)c1ccco1` (stereo unspecified), 39%.
Still for that read-out and setting: with `COc1cc2nc([S+]([O-])Cc3nccc(OC)c3OC)[nH]c2cc1NC(=O)C1CC1` (stereo unspecified) the figure was 16%.
Consider `COc1cc2nc([S+]([O-])Cc3nccc(OC)c3OC)[nH]c2cc1NC(=O)c1ccco1` (stereo unspecified), for which the inhibition stood at 13%.
The same measure, in the same setting: with `COc1ccnc(C[S+]([O-])c2nc3cc(Oc4ccc5c(c4)OCO5)c(NC(C)=O)cc3[nH]2)c1OC` (stereo unspecified) the figure was 1%; with `CCCN(CCC)c1cc2nc([S+]([O-])Cc3nccc(OC)c3OC)[nH]c2cc1NC(C)=O` (stereo unspecified), 28%.
Same read-out and setting: under `COc1ccc2[nH]c([S+]([O-])Cc3ncc(C)c(OC)c3C)nc2c1` (stereo unspecified) [OMEPRAZOLE] stands 39%; under `COc1ccnc(C[S+]([O-])c2nc3cc(N4CCCCC4)c(NC(=O)COCc4ccccc4)cc3[nH]2)c1OC` (stereo unspecified), 32%.
`COc1c(C)cnc(C[S+]([O-])c2nc3cc(Oc4ccc5c(c4)OCO5)c(NC(C)=O)cc3[nH]2)c1C` (stereo unspecified): the inhibition is 35%.
The same measure, in the same setting: with `COc1cc2nc([S+]([O-])Cc3nccc(OC)c3OC)[nH]c2cc1NC(C)=O` (stereo unspecified) the figure was 4%; with `COc1c(C)cnc(C[S+]([O-])c2nc3cc(N4CCCCC4)c(NC(=O)C(F)(F)F)cc3[nH]2)c1C` (stereo unspecified), 41%.
Still for that read-out and setting: with `COc1cc2nc([S+]([O-])Cc3ncc(C)c(OC)c3C)[nH]c2cc1NC(C)=O` (stereo unspecified) the figure was 4%; with `CCCN(CCC)c1cc2nc([S+]([O-])Cc3nccc(OC)c3OC)[nH]c2cc1NC(=O)C(F)(F)F` (stereo unspecified), 24%; with `CCOC(=O)N1CCN(c2cc3nc([S+]([O-])Cc4nccc(OC)c4OC)[nH]c3cc2NC(C)=O)CC1` (stereo unspecified), 17%.
On the same count and under the same terms, with `COc1cc2nc([S+]([O-])Cc3ncc(C)c(OC)c3C)[nH]c2cc1NC(=O)C1CC1` (stereo unspecified) the figure was 16%.
Regarding `CCOC(=O)N1CCN(c2cc3nc([S+]([O-])Cc4ncc(C)c(OC)c4C)[nH]c3cc2NC(C)=O)CC1` (stereo unspecified), the inhibition was determined as 15%.
Turning to `COc1ccnc(C[S+]([O-])c2nc3cc(N4CCCCC4)c(NC(=O)C4CC4)cc3[nH]2)c1OC` (stereo unspecified), the inhibition came to 32%.
The same measure, in the same setting: under `COc1c(C)cnc(C[S+]([O-])c2nc3cc(N4CCCCC4)c(NC(=O)C4CC4)cc3[nH]2)c1C` (stereo unspecified) stands 34%; under `CCOC(=O)N1CCN(c2cc3nc([S+]([O-])Cc4ncc(C)c(OC)c4C)[nH]c3cc2NC(=O)C2CC2)CC1` (stereo unspecified), 21%; under `COCCCOc1ccnc(C[S+]([O-])c2nc3ccccc3[nH]2)c1C` (stereo unspecified) [RABEPRAZOLE SODIUM], 90%.
Regarding `COc1c(C)cnc(C[S+]([O-])c2nc3cc(Oc4ccc5c(c4)OCO5)c(NC(=O)C4CC4)cc3[nH]2)c1C` (stereo unspecified), the inhibition is 10%.
Still for that read-out and setting: with `COc1ccnc(C[S+]([O-])c2nc3cc(Oc4ccc5c(c4)OCO5)c(NC(=O)C4CC4)cc3[nH]2)c1OC` (stereo unspecified) the figure was 0%; with `COc1ccnc(C[S+]([O-])c2nc3cc(N4CCCCC4)c(NC(=O)C(F)(F)F)cc3[nH]2)c1OC` (stereo unspecified), 38%.
`CCCN(CCC)c1cc2nc([S+]([O-])Cc3nccc(OC)c3OC)[nH]c2cc1NC(=O)C1CC1` (stereo unspecified): the inhibition is 11%.
On the same count and under the same terms, with `CCCN(CCC)c1cc2nc([S+]([O-])Cc3nccc(OC)c3OC)[nH]c2cc1NC(=O)c1ccco1` (stereo unspecified) the figure was 0%; with `CCCN(CCC)c1cc2nc([S+]([O-])Cc3ncc(C)c(OC)c3C)[nH]c2cc1NC(C)=O` (stereo unspecified), 62%.
The same measure, in the same setting: with `COc1ccnc(C[S+]([O-])c2nc3cc(Oc4ccccc4)c(NC(=O)C4CC4)cc3[nH]2)c1OC` (stereo unspecified) the figure was 2%; with `COc1c(C)cnc(C[S+]([O-])c2nc3cc(Oc4ccccc4)c(NC(C)=O)cc3[nH]2)c1C` (stereo unspecified), 37%.
Still for that read-out and setting: under `COc1c(C)cnc(C[S+]([O-])c2nc3cc(Oc4ccccc4)c(NC(=O)C4CC4)cc3[nH]2)c1C` (stereo unspecified) stands 18%; under `COc1ccnc(C[S+]([O-])c2nc3cc(Oc4ccccc4)c(NC(=O)c4ccco4)cc3[nH]2)c1OC` (stereo unspecified), 9%; under `COc1c(C)cnc(C[S+]([O-])c2nc3cc(N4CCCCC4)c(NC(C)=O)cc3[nH]2)c1C` (stereo unspecified), 10%.

Molecular target in another assay: not listed separately
The experiment in a line: Inhibition of H+/K+ATPase in pig gastric microsome assessed as liberation of inorganic phosphate using ATP. Type of assay: microsomes, Sus scrofa, Stomach.
Conditions: not given
Turning to `COc1ccc2[nH]c([S+]([O-])Cc3ncc(C)c(OC)c3C)nc2c1` (stereo unspecified) [OMEPRAZOLE], the IC50 came to 18 µM.
On the same count and under the same terms, under `COCCCOc1ccnc(C[S+]([O-])c2nc3ccccc3[nH]2)c1C` (stereo unspecified) [RABEPRAZOLE SODIUM] stands 1.5 µM; under `CCCN(CCC)c1cc2nc([S+]([O-])Cc3ncc(C)c(OC)c3C)[nH]c2cc1NC(C)=O` (stereo unspecified), 16 µM.

A word on the inhibition: it is the drop in the measured response relative to a control, in per cent. By IC50 is commonly meant the point on the concentration scale where inhibition reaches its midpoint.
